The nature of series [1]: Half-life was determined in monkey after 3 mg/kg of i.v. dose. Set-up: dose 3 mg/kg, route intravenous. The following applies: cercopithecidae, in vivo, iv. Type of series: ADME, organism-based.
For a further series, the target named is T1, Interstitial collagenase (Homo sapiens, UniProt P03956).
T1 sequence (P03956 whole entry): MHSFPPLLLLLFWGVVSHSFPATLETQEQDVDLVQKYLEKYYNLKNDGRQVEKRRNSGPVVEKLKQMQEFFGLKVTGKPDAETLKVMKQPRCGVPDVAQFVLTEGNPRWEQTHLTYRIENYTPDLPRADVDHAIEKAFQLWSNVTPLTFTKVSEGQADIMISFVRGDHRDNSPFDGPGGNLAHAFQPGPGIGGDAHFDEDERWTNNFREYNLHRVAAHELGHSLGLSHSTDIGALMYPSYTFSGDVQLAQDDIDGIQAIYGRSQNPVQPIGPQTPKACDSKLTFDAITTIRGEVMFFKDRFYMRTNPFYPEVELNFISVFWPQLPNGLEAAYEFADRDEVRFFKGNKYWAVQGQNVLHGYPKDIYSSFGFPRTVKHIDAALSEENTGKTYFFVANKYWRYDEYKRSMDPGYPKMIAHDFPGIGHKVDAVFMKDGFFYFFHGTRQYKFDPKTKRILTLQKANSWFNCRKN
The series can be described thus: In vitro inhibition of human Matrix metalloprotease-1.

Series [2] has as its target 72 kDa type IV collagenase (Homo sapiens, UniProt P08253). The experiment in a line: In vitro inhibition of human Matrix metalloprotease-2.
Series [3] can be described thus: Area under curve was determined in monkey after a 3 mg/kg of oral dose. Type of series: ADME, organism-based. Further details: dose 3 mg/kg, route oral. The following applies: cercopithecidae, in vivo.
Series [4] in a line: Volume of distribution was determined in rat after a 3 mg/kg of iv dose. In kind it is ADME, organism-based. Further details: dose 3 mg/kg, route intravenous. The following applies: in vivo, read-out: V.
Series [5] is described as follows: Half-life was determined in dog after a3 mg/kg of iv dose. Type of series: ADME, organism-based, Canis lupus familiaris. The following applies: in vivo, 3 mg/kg.
The nature of series [6]: Absolute bioavailability was evaluated in dog. In kind it is ADME, organism-based, Canis lupus familiaris. The settings on record: in vivo.
A short description of series [7]: Volume of distribution was determined in dog after a 3 mg/kg of iv dose. Type of series: ADME, organism-based, Canis lupus familiaris. Set-up: dose 3 mg/kg, route intravenous. The following applies: in vivo, read-out: V.
Series [8] can be described thus: Area under curve was determined in dog after a 3 mg/kg of oral dose. Type of series: ADME, organism-based, Canis lupus familiaris. Set-up: dose 3 mg/kg, route oral. The following applies: in vivo.
A short description of series [9]: Plasma clearance value was determined in monkey after a 3 mg/kg of iv dose. Further details: dose 3 mg/kg, route intravenous. Type of series: ADME, organism-based. The settings on record: cercopithecidae, in vivo.
Series [10] is described as follows: Absolute bioavailability was evaluated in monkey. In kind it is ADME, organism-based. The following applies: cercopithecidae, in vivo.
Series [11] can be described thus: Volume of distribution was determined in monkey after a 3 mg/kg of iv dose. In kind it is ADME, organism-based. Further details: dose 3 mg/kg, route intravenous. The settings on record: cercopithecidae, in vivo, read-out: V.
A further series has as its system Canis familiaris. The experiment in a line: Plasma clearance value was determined in dog after a 3 mg/kg of iv dose. Further details: dose 3 mg/kg, route intravenous. In kind it is ADME, organism-based, Canis lupus familiaris. The settings on record: in vivo.
Series [12] can be described thus: Absolute bioavailability was evaluated in rat. In kind it is ADME, organism-based. The following applies: in vivo.
The nature of series [13]: Area under curve was determined in rat after a 3 mg/kg of oral dose. In kind it is ADME, organism-based. Set-up: dose 3 mg/kg, route oral. The following applies: in vivo.
A further series concerns Rattus norvegicus. The experiment in a line: Plasma clearance value was determined in rat after a 3 mg/kg of iv dose. In kind it is ADME, organism-based. Further details: dose 3 mg/kg, route intravenous. The settings on record: in vivo.
In another series the test system is B16. The experiment in a line: Maximal effective dose against growth of B16 melanoma cells implanted subcutaneously in flank of mice. Type of series: functional, Mus musculus.
The next series concerns the target Stromelysin-1 (Homo sapiens, UniProt P08254). The series can be described thus: Inhibition of Matrix metalloprotease-3.
For a further series, the target named is T2, Matrilysin (Homo sapiens, UniProt P09237).
T2 sequence (P09237 whole entry): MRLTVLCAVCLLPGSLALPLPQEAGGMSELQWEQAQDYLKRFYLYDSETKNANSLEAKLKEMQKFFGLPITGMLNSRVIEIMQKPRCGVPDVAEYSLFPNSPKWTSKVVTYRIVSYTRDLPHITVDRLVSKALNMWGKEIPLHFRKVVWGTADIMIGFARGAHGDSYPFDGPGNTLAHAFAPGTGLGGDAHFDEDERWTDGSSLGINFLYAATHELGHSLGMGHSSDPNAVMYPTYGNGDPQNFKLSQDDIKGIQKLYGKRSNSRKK
The series can be described thus: Inhibition of Matrix metalloprotease-7.

The target in series [14] is Matrix metalloproteinase-9 (Homo sapiens, UniProt P14780). The experiment in a line: Inhibition of matrix metalloprotease-9.
For the next series, the system named is Mus musculus. The experiment in a line: Increase in life span corresponding to 6.5 day delay to 1 g tumor weight at 100 mg/kg of oral dose in mice. Type of series: functional. The following applies: 156 h.

The results in this text go back to ChEMBL document CHEMBL1134096, “Discovery and characterization of the potent, selective and orally bioavailable MMP inhibitor ABT-770” (Bioorg Med Chem Lett, 2001).

What is called half-life is the time in which the quantity being followed falls by half. In general, IC50 refers to the concentration needed to halve the response being measured. In general, AUC refers to concentration integrated over time. What is called bioavailability is the share of a dose that reaches the circulation, judged against a reference dose that is usually intravenous. The ILS is the gain in survival time of treated over control animals, in per cent.

Where “and” joins values, the source holds several entries; their conditions need not be identical. Identical values can stand only once.

Chain of 72 kDa type IV collagenase (P08253 whole entry): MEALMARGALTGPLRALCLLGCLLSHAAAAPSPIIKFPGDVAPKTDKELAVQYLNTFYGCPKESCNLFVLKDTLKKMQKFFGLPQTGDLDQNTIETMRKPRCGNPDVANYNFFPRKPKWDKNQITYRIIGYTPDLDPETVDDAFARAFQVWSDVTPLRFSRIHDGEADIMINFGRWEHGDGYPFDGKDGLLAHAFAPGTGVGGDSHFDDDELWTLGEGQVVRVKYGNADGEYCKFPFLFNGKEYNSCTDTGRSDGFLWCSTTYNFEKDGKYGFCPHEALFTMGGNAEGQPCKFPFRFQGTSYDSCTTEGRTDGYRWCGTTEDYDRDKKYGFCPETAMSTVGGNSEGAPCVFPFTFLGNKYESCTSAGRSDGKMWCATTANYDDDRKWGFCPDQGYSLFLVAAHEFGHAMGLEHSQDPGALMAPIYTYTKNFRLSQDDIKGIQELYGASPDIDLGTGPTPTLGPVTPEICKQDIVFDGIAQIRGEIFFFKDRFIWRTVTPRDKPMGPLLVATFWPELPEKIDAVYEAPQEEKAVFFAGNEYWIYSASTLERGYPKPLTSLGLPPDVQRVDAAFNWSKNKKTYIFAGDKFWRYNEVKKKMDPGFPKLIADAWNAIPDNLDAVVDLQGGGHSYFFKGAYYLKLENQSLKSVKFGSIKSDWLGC
Chain of Stromelysin-1 (P08254 whole entry): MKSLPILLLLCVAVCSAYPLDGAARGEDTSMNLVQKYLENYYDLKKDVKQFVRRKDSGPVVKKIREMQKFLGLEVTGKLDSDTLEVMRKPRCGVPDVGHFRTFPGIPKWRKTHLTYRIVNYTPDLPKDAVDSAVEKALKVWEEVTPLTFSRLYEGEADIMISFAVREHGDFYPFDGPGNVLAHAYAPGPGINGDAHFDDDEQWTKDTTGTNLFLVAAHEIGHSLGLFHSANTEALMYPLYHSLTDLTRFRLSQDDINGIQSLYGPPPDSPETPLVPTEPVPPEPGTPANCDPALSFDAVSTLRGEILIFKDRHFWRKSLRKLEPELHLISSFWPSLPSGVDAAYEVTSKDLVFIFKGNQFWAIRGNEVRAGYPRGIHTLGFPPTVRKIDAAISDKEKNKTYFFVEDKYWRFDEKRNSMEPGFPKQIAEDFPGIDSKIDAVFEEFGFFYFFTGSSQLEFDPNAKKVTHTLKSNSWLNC
Chain of Matrix metalloproteinase-9 (P14780 whole entry): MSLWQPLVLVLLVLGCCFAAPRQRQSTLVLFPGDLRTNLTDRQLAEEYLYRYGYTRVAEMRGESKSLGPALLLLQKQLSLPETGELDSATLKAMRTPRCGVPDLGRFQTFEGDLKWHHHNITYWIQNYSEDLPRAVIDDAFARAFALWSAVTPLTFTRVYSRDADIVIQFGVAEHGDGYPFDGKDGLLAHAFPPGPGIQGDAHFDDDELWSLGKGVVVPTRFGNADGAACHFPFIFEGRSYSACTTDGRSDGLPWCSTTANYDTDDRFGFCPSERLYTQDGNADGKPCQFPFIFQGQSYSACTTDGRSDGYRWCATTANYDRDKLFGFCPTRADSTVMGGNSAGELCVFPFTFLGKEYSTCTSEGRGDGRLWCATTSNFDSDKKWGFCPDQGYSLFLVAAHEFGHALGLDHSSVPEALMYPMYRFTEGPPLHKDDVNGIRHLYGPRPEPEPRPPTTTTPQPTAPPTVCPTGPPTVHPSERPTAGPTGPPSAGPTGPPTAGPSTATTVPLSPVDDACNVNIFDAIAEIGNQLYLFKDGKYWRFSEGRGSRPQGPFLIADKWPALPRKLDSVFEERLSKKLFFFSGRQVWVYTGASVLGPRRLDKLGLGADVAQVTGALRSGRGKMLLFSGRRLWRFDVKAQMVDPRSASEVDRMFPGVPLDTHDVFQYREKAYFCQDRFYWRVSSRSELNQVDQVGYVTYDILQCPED

`CC1(C)NC(=O)N(CC(COc2ccc(-c3ccc(S(C)(=O)=O)cc3)cc2)N(O)C=O)C1=O` (stereo not drawn) showed a half-life in series [1] of 5 h. The IC50 on Interstitial collagenase is 4900 nM; in series [2], 48 nM.
Consider `CN1C(=O)N(CC(COc2ccc(-c3ccc(C#N)cc3)cc2)N(O)C=O)C(=O)C1(C)C` (stereo not drawn), for which, in [2], it took 58 nM to reach half-maximal inhibition (IC50).
On to `CN1C(=O)N(CC(COc2ccc(-c3ccccc3)cc2)N(O)C=O)C(=O)C1(C)C` (stereo not drawn), for which the half-maximal inhibitory concentration (IC50) came to 1100 nM against Interstitial collagenase and 89 nM in [2].
On to `C=Cc1ccc(-c2ccc(OCC(CN3C(=O)N(C)C(C)(C)C3=O)N(O)C=O)cc2)cc1` (stereo not drawn), for which the results for the concentration for half-maximal inhibition (IC50) (at Interstitial collagenase; in [2]) were over 10000 nM and 61 nM, respectively.
On to `CCCOc1ccc(-c2ccc(OCC(CN3C(=O)NC(C)(C)C3=O)N(O)C=O)cc2)cc1` (stereo not drawn), for which the half-life in series [1] was 1 h. Further, the figures for the IC50 (on Interstitial collagenase; in series [2]) were over 10000 nM and 4 nM, respectively.
Regarding `CC1(C)NC(=O)N(CC(COc2ccc(-c3ccc(C(F)(F)F)cc3)cc2)N(O)C=O)C1=O` (stereo not drawn), the half-maximal inhibitory concentration (IC50) at Interstitial collagenase worked out at 840 nM; in [2], 20 nM.
Regarding `CCCCCOc1ccc(-c2ccc(OCC(CN3C(=O)NC(C)(C)C3=O)N(O)C=O)cc2)cc1` (stereo not drawn), the figures for the IC50 (against Interstitial collagenase; in series [2]) were over 10000 nM and 26 nM, respectively.
For the compound `CN1C(=O)N(CC(COc2ccc(-c3cccc(C#N)c3)cc2)N(O)C=O)C(=O)C1(C)C` (stereo not drawn), the IC50 against Interstitial collagenase is over 10000 nM; in [2], 1300 nM.
For the compound `CC1(C)NC(=O)N(C[C@@H](COc2ccc(-c3ccc(OC(F)(F)F)cc3)cc2)N(O)C=O)C1=O`, in series [1], the T1/2 was 8 h and 21 h. The AUC turned out to be 43000 ng·h/mL in series [3], 23000 ng·h/mL in series [8] and 24000 ng·h/mL in [13]. Also, the Vd in series [4] was 1.2 L/kg; in series [7], 0.9 L/kg; in series [11], 1.2 L/kg. For the same compound, the half-life in series [5] is 9 h. The bioavailability turned out to be 83% in series [6], 95% in [10] and 93% in [12]. Further, the Clp was 1.13 mL/min/kg in [9], 1.83 mL/min/kg in the series with Canis familiaris and 2 mL/min/kg in the series on Rattus norvegicus. The compound further had an Effective dose with B16 of 300 mg/kg. Further, the IC50 is 42 nM against Stromelysin-1; over 10000 nM against Matrilysin; 120 nM in series [14]; 4600 nM at Interstitial collagenase; 4 nM in series [2]. The compound further came in with an ILS at 100 mg/kg with Mus musculus of 46%.
Take `CCOc1ccc(-c2ccc(OCC(CN3C(=O)NC(C)(C)C3=O)N(O)C=O)cc2)cc1` (stereo not drawn): the figures for the half-maximal inhibitory concentration (IC50) (against Interstitial collagenase; in [2]) were 1000 nM and 1 nM, respectively.
Turning to `CN1C(=O)N(CC(COc2ccc(-c3cccs3)cc2)N(O)C=O)C(=O)C1(C)C` (stereo not drawn), the IC50 was found to be 3600 nM against Interstitial collagenase and 130 nM in [2].
With `CN1C(=O)N(CC(COc2ccc(-c3ccco3)cc2)N(O)C=O)C(=O)C1(C)C` (stereo not drawn), the IC50 at Interstitial collagenase stood at 1600 nM; in [2], 85 nM.
As to `CC1(C)NC(=O)N(CC(COc2ccc(-c3ccc(C#N)cc3)cc2)N(O)C=O)C1=O` (stereo not drawn), the half-life in [1] was 8 h. Besides, the results for the concentration for half-maximal inhibition (IC50) (against Interstitial collagenase; in [2]) were 2100 nM and 8 nM, respectively.
Turning to `CN1C(=O)N(CC(COc2ccc(-c3cccnc3)cc2)N(O)C=O)C(=O)C1(C)C` (stereo not drawn), the IC50 (on Interstitial collagenase; in [2]) was over 10000 nM in each case.
As for `Cc1ccc(-c2ccc(OCC(CN3C(=O)N(C)C(C)(C)C3=O)N(O)C=O)cc2)cc1` (stereo not drawn), the half-inhibitory concentration (IC50) against Interstitial collagenase was found to be 1600 nM; in series [2], 20 nM.
For `COc1ccc(-c2ccc(OCC(CN3C(=O)N(C)C(C)(C)C3=O)N(O)C=O)cc2)cc1` (stereo not drawn), the IC50 in series [2] is 4 nM.
`COCCOc1ccc(-c2ccc(OCC(CN3C(=O)NC(C)(C)C3=O)N(O)C=O)cc2)cc1` (stereo not drawn) had a half-life in [1] of 1 h. Further, the results for the half-inhibitory concentration (IC50) (at Interstitial collagenase; in series [2]) were over 10000 nM and 4 nM, respectively.
`CN1C(=O)N(CC(COc2cccc(-c3ccc(C#N)cc3)c2)N(O)C=O)C(=O)C1(C)C` (stereo not drawn): the 50% inhibitory concentration (IC50) (against Interstitial collagenase; in series [2]) was over 10000 nM in each case.
As to `CC1(C)NC(=O)N(C[C@H](COc2ccc(-c3ccc(OC(F)(F)F)cc3)cc2)N(O)C=O)C1=O`, the IC50 on Stromelysin-1 is 3100 nM; against Matrilysin, over 10000 nM; in series [14], 1200 nM; against Interstitial collagenase it was over 10000 nM; in [2], 180 nM.
`CCCCc1ccc(-c2ccc(OCC(CN3C(=O)NC(C)(C)C3=O)N(O)C=O)cc2)cc1` (stereo not drawn) showed a half-life in [1] of 1 h. Moreover, the IC50 is over 10000 nM at Interstitial collagenase and 16 nM in [2].
Compound `CC1(C)NC(=O)N(CC(COc2ccc(-c3ccc(OC(F)(F)F)cc3)cc2)N(O)C=O)C1=O` (stereo not drawn) showed a half-life in series [1] of 20 h. Moreover, the 50% inhibitory concentration (IC50) is 8600 nM against Interstitial collagenase and 6 nM in series [2].
